Legend:
[1] = Cytotoxicity in SH-SY5Y cells (MTT); assay type: cell-based; details: human, SH-SY5Y neuronal cells, concentration reducing cell viability to 50% of control
Experimental: So, to study the neuroprotectant potential of β-diketones in the SH-SY5Y cell line, we firstly need to determine their cytotoxicity in the same cellular model. […] In addition to that, within each series, the introduction of a second fluorine atom in the left-hand side phenyl ring decreases also the cytotoxicity.
SH-SY5Y cells were seeded into 96-well plates at a density of 5 × 10^3 cells/well and grown in the incubator for 24 h. All compounds tested were dissolved and eventually further diluted in dimethylsulfoxide (DMSO). After overnight incubation, the cells were treated with different test concentrations (5, 10, 20, 50, 100, 150, 200 µM) in a final volume of 200 µL with four replicates each. […] Cell proliferation or viability was measured using the 3-(4,5-dimethylthiazol-2-yl)-2,5-diphenyl tetrazolium bromide (MTT) assay. After 24 h, 20 µL of MTT (5 mg/mL) was added to each well and the plate was incubated at 37 °C in the dark for 2 h. Supernatants were removed and the formazan crystals were solubilized in DMSO (200 µL/well), under 10 min shaking at room temperature. The reduction of MTT was quantified by absorbance at 570 nm Varioskan microplate reader (Thermo Fisher Scientific, Vantaa, Finland). Effects of the test compounds on cell viability were calculated using cells treated with vehicle as control. The data were subjected to linear regression analysis and the regression lines were plotted for the best fit. The IC50 (inhibition of cell viability) concentrations were calculated using the respective dose-response curves.

SH-SY5Y cells = assay: Mitochondrial membrane potential by flow cytometry (JC-1) in SH-SY5Y cells under H2O2; assay type: cell-based, human; details: 7b for 24 h, then 400 µM H2O2 for 4 h, JC-1 flow cytometry
Experimental: To confirm this MMP recovery results, flow cytometry experiments were carried out with compound 7b and SH-SY5Y cells. Cells were treated with 7b for 24 h and then were exposed to 400 µM H2O2 for 4 h. JC-1 was used as fluorescence indicator of MMP state. In flow cytometry studies of MMP, JC-1 is excited at 488 nm wavelength. Both JC-1 aggregates and monomers show green fluorescence (peak emission at 527 nm) measured in the FL1 channel. […] Thus, healthy non-apoptotic cells are detected in both FL1 and FL2 channels, while cells with disrupted mitochondrial function show fluorescence in FL1 channel but reduced FL2 intensity. […] From these flow cytometry experiments, we can confirm that after compound 7b treatment there is a significant MMP recovery in SH-SY5Y cells under oxidative stress pressure.
For MMP flow cytometry studies, 10^5 SH-SY5Y cells were seeded in 6 well plates. After 24 h, cells were treated with test compound and incubated for other 24 h. After the treatment period, cells were exposed to H2O2 for 4 h. Then, cells were washed twice with Hanks buffer and stained with 5 µM JC-1 in culture media in dark, in a CO2 incubator at 37 °C for 20 min. After the staining period, cells were washed three times with Hanks buffer, collected and resuspended in 500 µL culture media. Data were obtained and analyzed using an Accuri C6 flow cytometer (BD Biosciences, Ann Arbour, MI, USA). […]

| SMILES | IC50 at 24 h [1] [µM] | FLA-1/FLA-2 ratio (SH-SY5Y cells) |
| --- | --- | --- |
| O=C(/C=C(O)/C=C/c1cc(F)c(O)cc1F)C(F)(F)F [Compound 6b, (3Z,5E)-6-(2,5-difluoro-4-hydroxyphenyl)-1,1,1-trifluoro-4-hydroxyhexa-3,5-dien-2-one] | 187 ± 13.2 | – |
| O=C(/C=C(O)/C=C/c1ccc(O)c(F)c1F)C(F)(F)F [Compound 7b, (3Z,5E)-6-(2,3-Difluoro-4-hydroxyphenyl)-1,1,1-trifluoro-4-hydroxyhexa-3,5-dien-2-one] | 200 ± 17.1 | significant reduction of that ratio |

From article PMC6222706, “Evaluation of the Antioxidant and Neuroprotectant Activities of New Asymmetrical 1,3-Diketones” (Molecules : A Journal of Synthetic Chemistry and Natural …, 2018)
